Values quoted from earlier work as cited in PMC9981747, “A covalent BTK ternary complex compatible with targeted protein degradation” (Nature Communications, 2023).

Assays:
[1] = parameters: method as in PMID 31879210; details: 1 mg/kg IV; cited from earlier work
[2] = parameters: method as in PMID 27274052; details: cited from earlier work

| SMILES | exposure [1] | concentrations in sub-chronic tumor growth inhibition study ([2]; in 4 of 8 rodents tested) | Cmax ([2]; single 10 mg/kg sc dose, read-out: plasma Cmax) |
| --- | --- | --- | --- |
| Nc1ncnc2c1c(-c1ccc(Oc3ccccc3)cc1)nn2C1CCN(CCOCCOCCOc2ccc3c(c2)CN(C2CCC(=O)NC2=O)C3=O)CC1 (stereo not drawn) [SJF620] | micromolar exposures |  |  |
| Cc1ncsc1-c1ccc([C@H](C)NC(=O)[C@@H]2C[C@@H](O)CN2C(=O)[C@@H](NC(=O)COCCCOCCNC(=O)C[C@@H]2N=C(c3ccc(Cl)cc3)c3c(sc(C)c3C)-n3c(C)nnc32)C(C)(C)C)cc1 [ARV-771] |  | > 2000 nM | ~1700 nM |
